BindingDB's records for doi:10.1021/jm00063a011 (Kyowa Hakko Kogyo, 1993)

Tests used:
[1] = target: Thromboxane-A synthase (Bos taurus); experiment: Activity against TXA2 synthase in bovine platelet microsome
[2] = as above

Row | Structure (SMILES) | IC50 [1] [nM] | IC50 [2] [nM]
1 | O=C(O)c1ccc2c(c1)C(SCc1cccnc1)c1ccccc1CO2 (stereo not drawn) [11-(Pyridin-3-ylmethylsulfanyl)-6,11-dihydro-dibenzo[b,e]oxepine-2-carboxylic acid] | 4 | 400
2 | C/C(=C\c1ccc(Cc2cccnc2)cc1)C(=O)O [Sodium; (E)-2-methyl-3-(4-pyridin-3-ylmethyl-phenyl)-acrylate] | 4.3 | –
